The text below walks through data of ChEMBL document CHEMBL4739717, “Methods of treating cartilage disorders through inhibition of clk and dyrk” (2020).

The target in assay [1] is Dual specificity tyrosine-phosphorylation-regulated kinase 1A (Homo sapiens, UniProt Q13627). Nature of the assay: Inhibition of recombinant DYRK1A (unknown origin) using Ser/Thr 18 peptide as substrate incubated for 1 hr in presence of ATP by FRET assay.
Assay [2] in a line: Induction of chondrogenesis in human MSC assessed as maximum activity at 300 nM incubated for 6 days by rhodamine B and Nile red staining based imaging analysis relative to control. Type of assay: functional. To be noted: BMMSC, 144 h, time 6 day.
Assay [3] is described as follows: Effect on Wnt signaling pathway in human SW480 cells harbouring TCF/LEF luciferase reporter gene and SP5-Luc reporter gene incubated for 36 to 48 hrs by luminescence assay. Type of assay: cell-based.
Assay [4] can be described thus: Inhibition of IL1-beta induced MMP3 expression levels in human chondrocytes assessed as MMP3 levels incubated for 2hrs followed by IL1-beta stimulation and measured after overnight incubation by LANCE assay. The assay is classed as functional, cell-based. As to conditions: Chondrocyte.
Assay [5] can be described thus: Induction of chondrogenesis in human MSC assessed as maximum activity at 100 nM incubated for 6 days by rhodamine B and Nile red staining based imaging analysis relative to control. Type of assay: functional. As to conditions: BMMSC, 144 h, time 6 day.
Assay [6] in a line: Induction of chondrogenesis in human MSC assessed as incubated for 6 days by rhodamine B and Nile red staining based imaging analysis. The assay is classed as functional. As to conditions: bmmsc.

The EC50 is the concentration needed to bring the measured effect to its halfway point. By Emax is commonly meant the greatest response seen or fitted, relative to the assay's reference.

As for `COc1cncc(-c2ccc3[nH]nc(-c4cc5c(-c6ccoc6)nccc5[nH]4)c3c2)c1`, the 50% effective concentration (EC50) turned out to be 35 nM in assay [1] and 643 nM in assay [3]. For the same compound, the Emax at 0.3 µM in assay [2] is 35.5%.
Turning to `CCCC(=O)Nc1cncc(-c2cnc3[nH]nc(-c4nc5c(-c6ccccc6F)cncc5[nH]4)c3c2)c1`, the EC50 in assay [1] came out at 70 nM; in assay [3] it was 8 nM. In addition, in assay [2], the Emax at 0.3 µM is 82.8%.
With `c1cncc(-c2ccnc3[nH]c(-c4n[nH]c5cnc(-c6cncc(CN7CCCC7)c6)cc45)cc23)c1`, the EC50 in assay [1] was 72 nM; in assay [3], over 10000 nM. In assay [2], the Emax at 0.3 µM was 16.7%.
Regarding `O=C(Nc1cncc(-c2cnc3[nH]nc(-c4nc5c(-c6cccnc6)cncc5[nH]4)c3c2)c1)C1CC1`, the results for the EC50 in assay [1] and in assay [3] were 14 nM and 23.3 nM, respectively. In addition, the Emax at 0.3 µM in assay [2] came out at 86.3%.
Turning to `CCNCc1cncc(-c2cnc3[nH]nc(-c4cc5c(-c6cc(F)cc(CNS(C)(=O)=O)c6)cncc5[nH]4)c3c2)c1`, the values for the EC50 in assay [1], in assay [4] and in assay [3] were 6 nM, 3000 nM and over 10000 nM, respectively. Also, in assay [5], the Emax at 0.1 µM was found to be 42.8%.
Regarding `CC(C)(C)C(=O)Nc1cncc(-c2cnc3[nH]nc(-c4cc5c(-c6ccncc6)cncc5[nH]4)c3c2)c1`, the EC50 was 5 nM in assay [1] and over 10000 nM in assay [3]. The Emax at 0.3 µM in assay [2] came to 33.6%.
Turning to `CC(C)C(=O)Nc1cncc(-c2cc3c(-c4cc5c(-c6cccc(F)c6)cncc5[nH]4)n[nH]c3cn2)c1`, the values for the concentration giving a half-maximal response (EC50) in assay [1] and in assay [3] were 65 nM and 1730 nM, respectively. Moreover, the Emax at 0.3 µM in assay [2] is 42.2%.
The corresponding values for `CC(C)C(=O)Nc1cncc(-c2ccc3[nH]nc(-c4cc5c(N6CCN(C)CC6)nccc5[nH]4)c3c2)c1` are 15 nM, 7690 nM and 21%.
Consider `FC1(F)CCN(Cc2cncc(-c3cnc4[nH]nc(-c5cc6c(-c7ccncc7)cncc6[nH]5)c4c3)c2)C1`, for which the values for the concentration giving a half-maximal response (EC50) in assay [1] and in assay [3] were 13 nM and 1510 nM, respectively. Further, the Emax at 0.3 µM in assay [2] was 36.5%.
The matching figures for `CCC(=O)Nc1cncc(-c2cnc3[nH]nc(-c4cc5cnccc5[nH]4)c3c2)c1`: 2 nM, 960 nM and 16.9%.
Take `c1cncc(-c2ccnc3[nH]c(-c4n[nH]c5cnc(-c6cncnc6)cc45)cc23)c1`: the EC50 is 100 nM in assay [1] and over 10000 nM in assay [3]. Besides, the Emax at 0.3 µM in assay [2] turned out to be 49.6%.
Regarding `Nc1cncc(-c2ccc3[nH]nc(-c4cc5c(-c6ccccc6F)ccnc5[nH]4)c3c2)c1`, the EC50 in assay [1] was 34 nM; in assay [3], 131 nM. In assay [2], the Emax at 0.3 µM was found to be 23.5%.
Take `c1cncc(-c2ccc3[nH]nc(-c4cc5c(-c6cccnc6)cncc5[nH]4)c3c2)c1`: the EC50 was 1 nM in assay [1], 1.1 nM in assay [4], 310 nM in assay [3] and 100 nM in assay [6]. Besides, the Emax at 0.1 µM in assay [5] worked out at 58.2%.
With `CN1CCN(c2ccnc3[nH]c(-c4n[nH]c5ccc(-c6cncc(NC(=O)CC(C)(C)C)c6)nc45)cc23)CC1`, the figures for the EC50 in assay [1] and in assay [3] were 10 nM and 3870 nM, respectively. The Emax at 0.3 µM in assay [2] was determined as 30.3%.
In the case of `CN1CCN(c2ccnc3[nH]c(-c4n[nH]c5ncc(-c6cn[nH]c6)cc45)cc23)CC1`, the concentration for a half-maximal effect (EC50) was 35 nM in assay [1] and over 10000 nM in assay [3]. Further, in assay [2], the Emax at 0.3 µM turned out to be 20.1%.
The matching figures for `O=C(Nc1cncc(-c2cnc3[nH]nc(-c4cc5c(N6CCCCC6)nccc5[nH]4)c3c2)c1)C1CC1`: 31 nM, 3850 nM and 42.5%.
The matching figures for `c1ncc(-c2ccc3[nH]nc(-c4cc5c(N6CCCCC6)cncc5[nH]4)c3c2)cc1CN1CCCC1`: 24 nM, 1840 nM and 24.7%.
As for `CC(C)C(=O)Nc1cncc(-c2cc3c(-c4cc5c(-c6ccncc6)nccc5[nH]4)n[nH]c3cn2)c1`, the values for the EC50 in assay [1] and in assay [3] were 45 nM and over 10000 nM, respectively. The maximum response (Emax) at 0.3 µM in assay [2] amounted to 32.1%.
In the case of `CN(C)Cc1cncc(-c2ccc3[nH]nc(-c4cc5c(-c6cccc(F)c6)nccc5[nH]4)c3c2)c1`, the EC50 was found to be 93 nM in assay [1] and 2940 nM in assay [3]. Moreover, the Emax at 0.3 µM in assay [2] was found to be 42%.
As for `CCCCC(=O)Nc1cncc(-c2cnc3[nH]nc(-c4cc5cnccc5[nH]4)c3c2)c1`, the concentration for a half-maximal effect (EC50) came out at 3 nM in assay [1] and 1470 nM in assay [3]. Besides, in assay [2], the Emax at 0.3 µM stood at 30.8%.
As to `O=C(Nc1cncc(-c2cc3c(-c4cc5c(N6CCCCC6)nccc5[nH]4)n[nH]c3cn2)c1)C1CCC1`, the EC50 in assay [1] was 23 nM; in assay [3], 4070 nM. In addition, in assay [2], the maximal effect (Emax) at 0.3 µM came out at 42.4%.
As for `FC1(F)CCN(Cc2cncc(-c3ccc4[nH]nc(-c5cc6c(-c7cccnc7)ccnc6[nH]5)c4c3)c2)C1`, the EC50 in assay [1] was 10 nM; in assay [3] it was 523 nM. Besides, in assay [2], the Emax at 0.3 µM came to 20.3%.
`c1cncc(-c2ccnc3[nH]c(-c4n[nH]c5ncc(-c6cncc(CN7CCCCC7)c6)cc45)cc23)c1`: the EC50 in assay [1] was 15 nM; in assay [3], over 10000 nM. Moreover, in assay [2], the Emax at 0.3 µM came out at 43.9%.
Regarding `CN(C)Cc1cncc(-c2ccc3[nH]nc(-c4cc5c(-c6ccncc6)cncc5[nH]4)c3c2)c1`, the EC50 was determined as 27 nM in assay [1] and 1060 nM in assay [3]. For the same compound, the Emax at 0.3 µM in assay [2] came out at 17.8%.
On to `FC1(F)CCN(Cc2cncc(-c3ccc4[nH]nc(-c5cc6c(-c7cccnc7)cncc6[nH]5)c4n3)c2)C1`, for which the values for the EC50 in assay [1] and in assay [3] were 30 nM and 3850 nM, respectively. The Emax at 0.3 µM in assay [2] is 23.3%.
`CC(C)OCCCNC(=O)c1n[nH]c2ccc(-c3cccnc3)cc12`: the EC50 in assay [4] stood at 10.8 nM; in assay [3] it was 464 nM. Moreover, in assay [5], the Emax at 0.1 µM came out at 92.5%.
With `CN(C)Cc1cncc(-c2cc3c(-c4cc5c(-c6ccncc6)ccnc5[nH]4)n[nH]c3cn2)c1`, the EC50 is 71 nM in assay [1] and over 10000 nM in assay [3]. In addition, in assay [2], the Emax at 0.3 µM stood at 33.4%.
The corresponding values for `O=C(Nc1cncc(-c2cnc3[nH]nc(-c4nc5c(-c6cccc(F)c6)cncc5[nH]4)c3c2)c1)N1CCOCC1` are 14 nM, 9 nM and 96.8%.
As to `O=C1CCc2cccc(c2)-c2cncc3[nH]c(nc23)-c2n[nH]c3ccc(cc23)-c2cncc(c2)N1`, the figures for the EC50 in assay [4], in assay [3] and in assay [6] were 3000 nM, 51.8 nM and 50 nM, respectively. Further, the Emax at 0.1 µM in assay [5] stood at 225%.
Consider `Cc1ccncc1-c1cnc2[nH]nc(-c3cc4c(-c5cccnc5)cncc4[nH]3)c2c1`, for which the results for the EC50 in assay [1] and in assay [3] were 17 nM and 2250 nM, respectively. For the same compound, in assay [2], the Emax at 0.3 µM was determined as 17.4%.
Consider `CC(C)Nc1cncc(-c2ccc3[nH]nc(-c4cc5c(-c6cccnc6)ccnc5[nH]4)c3c2)c1`, for which the EC50 in assay [1] is 20 nM; in assay [3], over 10000 nM. Also, the Emax at 0.3 µM in assay [2] turned out to be 45.5%.
Take `CN1CCN(c2nccc3[nH]c(-c4n[nH]c5ccc(-c6cncc(CN7CCCC7)c6)cc45)cc23)CC1`: the concentration for a half-maximal effect (EC50) in assay [1] is 48 nM; in assay [3] it was 9380 nM. Also, in assay [2], the Emax at 0.3 µM amounted to 31%.
The matching figures for `CC(C)(C)CC(=O)Nc1cncc(-c2cnc3[nH]nc(-c4cc5cnccc5[nH]4)c3c2)c1`: 2 nM, 605 nM and 7.07%.
As for `O=C1COc2cccc(c2)-c2cncc3[nH]c(nc23)-c2n[nH]c3ccc(cc23)-c2cncc(c2)N1`, the EC50 in assay [4] was determined as 37.4 nM; in assay [3], 86.8 nM; in assay [6], 100 nM. The Emax at 0.1 µM in assay [5] was 185%.
Turning to `CC(C)CC(=O)Nc1cncc(-c2ccc3[nH]nc(-c4cc5c(-c6ccccc6F)nccc5[nH]4)c3n2)c1`, the EC50 was found to be 23 nM in assay [1] and 605 nM in assay [3]. Besides, in assay [2], the maximal response (Emax) at 0.3 µM was 36.3%.
For `FC1(F)CCN(Cc2cncc(-c3ccc4[nH]nc(-c5cc6c(N7CCCCC7)cccc6[nH]5)c4c3)c2)C1`, the EC50 in assay [1] was determined as 22 nM; in assay [3], 750 nM; in assay [6], 30 nM. Besides, in assay [5], the Emax at 0.1 µM came out at 160%.
`CN1CCN(c2cncc3[nH]c(-c4n[nH]c5ccc(-c6cncc(NC(=O)CC7CCNCC7)c6)cc45)cc23)CC1`: the EC50 is 15 nM in assay [1], over 10000 nM in assay [3] and 100 nM in assay [6]. The Emax at 0.1 µM in assay [5] was found to be 289%.
`FC1(F)CCN(Cc2cncc(-c3cnc4[nH]nc(-c5cc6c(-c7ccoc7)cccc6[nH]5)c4c3)c2)C1`: the EC50 in assay [1] was found to be 11 nM; in assay [3], 1000 nM; in assay [6], 30 nM. In assay [5], the Emax at 0.1 µM stood at 72.1%.
The corresponding values for `Cc1cn(-c2ccnc3[nH]c(-c4n[nH]c5ccc(-c6cncc(NC(=O)C(C)(C)C)c6)nc45)nc23)cn1` are 22 nM, over 10000 nM, 10 nM and 70.2%.
As for `CN(C)CCNc1cc(F)cc(-c2cccc3[nH]c(-c4n[nH]c5cnc(-c6cncc(N)c6)cc45)cc23)c1`, the EC50 in assay [1] stood at 23 nM; in assay [3], 407 nM; in assay [6] it was 100 nM. Further, the Emax at 0.1 µM in assay [5] is 180%.
The matching figures for `Nc1cncc(-c2ccc3[nH]nc(-c4nc5c(-c6ccccc6F)nccc5[nH]4)c3c2)c1`: 6 nM, 8.8 nM, 100 nM and 61.9%.
In the case of `Cc1ccncc1-c1cc2c(-c3cc4cnccc4[nH]3)n[nH]c2cn1`, the results for the EC50 in assay [1], in assay [3] and in assay [6] were 11 nM, 389 nM and 10 nM, respectively. Besides, the Emax at 0.1 µM in assay [5] turned out to be 61.4%.
